# Experimental data as given in patent US8754100B2, “Nitrogen-containing fused heterocyclic compounds and their use as beta amyloid production inhibitors” (EISAI R&D Management Co., Ltd., priority 2009, dated 2014).
# Test system: Aβ42 production in rat primary neuronal culture
# Test: Quantification of Aβ peptide (Aβ42 ELISA) in culture of neurons from rat fetus brain
# Type: cell-based
# Details: Rattus norvegicus, Neuron, 72 h; primary neuronal culture from cerebral cortex of embryonic day 18 Wistar rats; cultured three days after addition of compound; Aβ42 in medium by ELISA; read-out: Aβ42 Production reducing action IC50
# Procedure: Quantification of Aβ Peptide in Culture of Neurons from Rat Fetus Brain
# (1) Rat Primary Neuronal Culture
# Primary neuronal cultures were prepared from the cerebral cortex of embryonic day 18 Wistar rats (Charles River Japan, Yokohama, Japan). Specifically, the embryos were aseptically removed from pregnant rats under ether anesthesia. The brain was isolated from the embryo and immersed in an ice-cold L-15 medium (Invitrogen Corp. Cat #11415-064, Carlsbad, Calif., USA, or SIGMA L1518, for example). The cerebral cortex was collected from the isolated brain under a stereoscopic microscope. The cerebral cortex fragments collected were enzymatically treated in an enzyme solution containing 0.25% trypsin (Invitrogen Corp. Cat #15050-065, Carlsbad, Calif., USA) and 0.01% DNase (Sigma D5025, St. Louis, Mo., USA) at 37° C. for 30 minutes to disperse the cells. Here, the enzymatic reaction was stopped by adding inactivated horse serum to the solution. The enzymatically treated solution was centrifuged at 1,500 rpm for five minutes to remove the supernatant 5 to 10 ml of a medium was added to the resulting cell mass. Neurobasal medium (Invitrogen Corp. Cat #21103-049, Carlsbad, Calif., USA) supplemented with 2% B27 supplement (Invitrogen Corp. Cat #17504-044, Carlsbad, Calif., USA), 25 μM 2-mercaptoethanol (2-ME, WAKO Cat #139-06861, Osaka, Japan), 0.5 mM L-glutamine (Invitrogen Corp. Cat #25030-081, Carlsbad, Calif., USA), and Antibiotics-Antimycotics (Invitrogen Corp. Cat #15240-062, Carlsbad, Calif., USA) was used as the medium (Neurobasal/B27/2-ME). However, the above Neurobasal medium not supplemented with 2-ME (Neurobasal/B27) was used for the assay. The cells were redispersed by mild pipetting of the cell mass to which the medium was added. The cell dispersion was filtered through a 40-μm nylon mesh (Cell Strainer, Cat #35-2340, Becton Dickinson Labware, Franklin Lakes, N.J., USA) to remove the remaining cell mass, and thus a neuronal cell suspension was obtained. The neuronal cell suspension was diluted with the medium and then plated in a volume of 100 μl/well at an initial cell density of 5×10^5 cells/cm^2 in a 96-well polystyrene culture plate pre-coated with poly-L or D-lysine (Falcon Cat #35-3075, Becton Dickinson Labware, Franklin Lakes, N.J., USA coated with poly-L-lysine using the method shown below, or BIOCOAT™ cell environments Poly-D-lysine cell ware 96-well plate, Cat #35-6461, Becton Dickinson Labware, Franklin Lakes, N.J., USA). Poly-L-lysine coating was carried out as follows. 100 μg/ml of a poly-L-lysine (SIGMA P2636, St. Louis, Mo., USA) solution was aseptically prepared with a 0.15 M borate buffer (pH 8.5). […] Thereafter, the coated 96-well polystyrene culture plate was washed with sterile water four or more times, and then dried or rinsed with sterile PBS or medium, and used for cell plating. The plated cells were cultured in the culture plate at 37° C. in 5% CO2-95% air for one day. Then, the total amount of the medium was replaced with a fresh Neurobasal/B27/2-ME medium, and then the cells were cultured for further three days.
# The drug was added to the culture plate on Day 4 of culture as follows. The total amount of the medium was removed from the wells, and 180 μl/well of Neurobasal medium not containing 2-ME and containing 2% B-27 (Neurobasal/B27) was added thereto. A solution of the test compound in dimethyl sulfoxide (hereinafter abbreviated as DMSO) was diluted with Neurobasal/B27 to a concentration 10-fold higher than the final concentration. 20 μl/well of the dilution was added to and sufficiently mixed with the medium. The final DMSO concentration was 1% or less. Only DMSO was added to the control group.
# The cells were cultured for three days after addition of the compound, and the total amount of the medium was collected. The resulting medium was used as an ELISA sample. […]
row,Compound,IC50 [nM]
1,COc1nc(-c2nc3n(n2)CCC[C@H]3c2cc(C(C)(C)C)ccc2Br)ccc1-n1cnc(C)c1 [Example 199],6
2,COc1nc(-c2nc3n(n2)CCC[C@H]3c2ccc(N3CCCCCC3)cc2)ccc1-n1cnc(C)c1 [Example 383],21
3,COc1nc(-c2nc3n(n2)CCC[C@H]3c2ccc(N3CCCCC3)cc2Cl)ccc1-n1cnc(C)c1 [Example 295],33
4,COc1nc(-c2nc3n(n2)CCC[C@H]3c2ccc3c(c2)C(C)(C)CN3CC(F)(F)F)ccc1-n1cnc(C)c1 [Example 337],13
5,COc1ccc(C(C)(C)C(F)(F)F)cc1[C@@H]1CCCn2nc(-c3ccc(-n4cnc(C)c4)c(OC)n3)nc21 [Example 331],12
6,COc1nc(-c2cn3c(n2)[C@H](c2cc(Br)ccc2C(F)(F)F)CCC3)ccc1-n1cnc(C)c1 [Example 250],13
7,COc1nc(-c2cn3c(n2)[C@H](c2cc(C(C)(C)C#N)ccc2Cl)CCC3)ccc1-n1cnc(C)c1 [Example 245],16
8,COc1nc(-c2nc3n(n2)CCC[C@H]3c2ccc(N(CC3CC3)CC(F)(F)F)cc2Cl)ccc1-n1cnc(C)c1 [Example 307],13
9,"COc1nc(-c2cn3c(n2)[C@H](c2ccccc2C(F)(F)F)CC3)ccc1-n1cnc(C)c1 (single isomer, unassigned) [Example 104, (−)-2-[6-methoxy-5-(4-methylimidazol-1-yl)pyridin-2-yl]-7-(2-trifluoromethylphenyl)-6,7-dihydro-5H-pyrrolo[1,2-a]imidazole]",91
10,COc1nc(-c2nc3n(n2)CCC[C@H]3c2cccc(C(C)(C)C)c2)ccc1-n1cnc(C)c1 [Example 193],13
11,COc1nc(-c2nc3n(n2)CCC[C@H]3c2cc(C(C)(C)C)c(F)cc2F)ccc1-n1cnc(C)c1 [Example 211],15
12,COc1nc(-c2nc3n(n2)CCC[C@H]3c2cc(-c3ccccc3)ccc2Cl)ccc1-n1cnc(C)c1 [Example 359],16
13,COc1nc(-c2cn3c(n2)[C@H](c2cccc(C(C)(C)C)c2OC)CCC3)ccc1-n1cnc(C)c1 [Example 239],12
14,"COc1nc(-c2nc3n(n2)CCC[C@@H]3c2cc(C(C)(C)OC)ccc2Cl)ccc1-n1cnc(C)c1 [Example 267, (−)-2-[6-methoxy-5-(4-methyl-1H-imidazol-1-yl)pyridin-2-yl]-8-(2-chloro-5-(1-methoxy-1-methylethyl)phenyl)-5,6,7,8-tetrahydro[1,2,4]triazolo[1,5-a]pyridine]",29
15,COc1nc(-c2nc3n(n2)CCC[C@H]3c2cc(N3CCCC3)ccc2Cl)ccc1-n1cnc(C)c1 [Example 347],30
16,COc1nc(-c2nc3n(n2)CCC[C@H]3c2cc(N3CCC(C)CC3)ccc2Cl)ccc1-n1cnc(C)c1 [Example 311],12
17,"COc1cc(C)c(C2CCCn3nc(-c4ccc(-n5cnc(C)c5)c(OC)n4)nc32)cc1C(C)C (single isomer, unassigned; (-)) [Example 2, (−)-8-(5-isopropyl-4-methoxy-2-methylphenyl)-2-[6-methoxy-5-(4-methylimidazol-1-yl)pyridin-2-yl]-5,6,7,8-tetrahydro[1,2,4]triazolo[1,5-a]pyridine]",10
18,COc1cc([C@@H]2CCCn3cc(-c4ccc(-n5cnc(C)c5)c(OC)n4)nc32)ccc1C(C)(C)C [Example 240],5

row,Compound,IC50 [nM]
1,COc1cc([C@@H]2CCCn3nc(-c4ccc(-n5cnc(C)c5)c(OC)n4)nc32)cc(C(C)(C)C)c1 [Example 187],11
2,COc1nc(-c2nc3n(n2)CCC[C@H]3c2cc(N(CC3CC3)CC3CC3)ccc2Cl)ccc1-n1cnc(C)c1 [Example 315],4
3,"COc1nc(-c2cn3c(n2)C(c2ccccc2C(F)(F)F)CCC3)ccc1-n1cnc(C)c1 (single isomer, unassigned) [Example 102, (−)-2-[6-methoxy-5-(4-methylimidazol-1-yl)pyridin-2-yl]-8-(2-trifluoromethylphenyl)-5,6,7,8-tetrahydroimidazo[1,2-a]pyridine]",55
4,"COc1nc(-c2cn3c(n2)[C@H](c2ccc(Cl)cc2C(F)(F)F)CCC3)ccc1-n1cnc(C)c1 (single isomer, unassigned) [Example 108, (−)-8-(4-chloro-2-trifluoromethylphenyl)-2-[6-methoxy-5-(4-methylimidazol-1-yl)pyridin-2-yl]-5,6,7,8-tetrahydroimidazo[1,2-a]pyridine]",18
5,COc1nc(-c2nc3n(n2)CCC[C@H]3c2cc(N3CCC(C(F)(F)F)CC3)ccc2Cl)ccc1-n1cnc(C)c1 [Example 317],15
6,COc1nc(-c2nc3n(n2)CCC[C@H]3c2cc(N(CC3CC3)CC(F)(F)F)ccc2Cl)ccc1-n1cnc(C)c1 [Example 313],6
7,COc1cc([C@@H]2CCCn3nc(-c4ccc(-n5cnc(C)c5)c(OC)n4)nc32)ccc1C(C)(C)C [Example 191],7
8,COc1nc(-c2cn3c(n2)[C@H](c2ccc(C(C)(C)C)cc2)CCC3)ccc1-n1cnc(C)c1 [Example 242],9
9,"COc1nc(-c2nc3n(n2)CCC[C@@H]3c2cc(-c3ccc(C(F)(F)F)cn3)ccc2Cl)ccc1-n1cnc(C)c1 (stereo in doubt) [Example 361, (−)-8-[2-chloro-5-(5-trifluoromethylpyridine-2-yl)phenyl]-2-[6-methoxy-5-(4-methyl-1H-imidazole-1-yl)pyridine-2-yl]-5,6,7,8-tetrahydro[1,2,4]triazolo[1,5-a]pyridine]",13
10,COc1nc(-c2nc3n(n2)CCC[C@H]3c2ccc(Cl)c(N3CCCCC3)c2)ccc1-n1cnc(C)c1 [Example 287],22
11,COc1nc(-c2nc3n(n2)CCC[C@H]3c2cc(C(C)(C)C#N)c(Cl)cc2Cl)ccc1-n1cnc(C)c1 [Example 225],28
12,COc1nc(-c2nc3n(n2)CCC[C@H]3c2cc(C(C)(C)C)ccc2F)ccc1-n1cnc(C)c1 [Example 197],13
13,"COc1nc(-c2cn3c(n2)[C@H](c2ccc(Br)cc2C(F)(F)F)CCC3)ccc1-n1cnc(C)c1 [Example 100, (−)-8-(4-bromo-2-trifluoromethylphenyl)-2-[6-methoxy-5-(4-methylimidazol-1-yl)pyridin-2-yl]-5,6,7,8-tetrahydroimidazo[1,2-a]pyridine]",9
14,COc1nc(-c2nc3n(n2)CCC[C@H]3c2ccc(N(CC(F)(F)F)C3CC3)cc2Cl)ccc1-n1cnc(C)c1 [Example 309],14
15,COc1nc(-c2cn3c(n2)[C@H](c2ccc(C(C)(C)C#N)cc2Cl)CCC3)ccc1-n1cnc(C)c1 [Example 246],55
16,COc1nc(-c2nc3n(n2)CCC[C@H]3c2cc(N3CC(C)CC(C)C3)ccc2Cl)ccc1-n1cnc(C)c1 (stereo partly shown) [Example 319],10
17,COc1nc(-c2nc3n(n2)CCC[C@H]3c2cc(N3CCCCC3)ccc2Br)ccc1-n1cnc(C)c1 [Example 279],8

# Same assay, conditions: primary neuronal culture from cerebral cortex of embryonic day 18 Wistar rats; cultured three days after addition of compound; Aβ42 in medium by ELISA; read-out: Aβ42 Production reducing action IC50
row,Compound,IC50 [nM]
1,COc1ccc([C@@H]2CCCn3nc(-c4ccc(-n5cnc(C)c5)c(OC)n4)nc32)cc1C(C)(C)C [Example 59],7
2,"COc1nc(-c2nc3n(n2)CCC[C@H]3c2ccc(Br)cc2C(F)(F)F)ccc1-n1cnc(C)c1 [Example 42, −8-4-bromo-2-trifluoromethylphenyl-2-[6-methoxy-5-(4-methylimidazol-1-yl)pyridin-2-yl]-5,6,7,8-tetrahydro[1,2,4]triazolo[1,5-a]pyridine]",52
